Source: ChEMBL document CHEMBL1201862, “PubChem BioAssay data set” (2004)
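Assay format: 96-well plates, 48-hour exposure. GI50 marks 50% less growth.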 The source made the active and inactive calls. Rule as the data show it: active = GI50 up to about 1.1 µM and inactive = higher.

What was measured:
Assay in all cases: NCI anticancer screen, dose series, 48 h
TK-10 = system: TK-10
PC-3 = system: PC-3
HCT-15 = system: HCT-15
Hs-578T = system: Hs-578T
Malme-3M = system: Malme-3M
A498 = system: A498
HL-60 = system: HL-60
UO-31 = system: UO-31
SK-OV-3 = system: SK-OV-3
HCC 2998 = system: HCC 2998
DU-145 = system: DU-145
IGROV-1 = system: IGROV-1
SNB-19 = system: SNB-19
MDA-MB-231 = system: MDA-MB-231
T47D = system: T47D
EKVX = system: EKVX
U-251 = system: U-251
NCI-H226 = system: NCI-H226
786-0 = system: 786-0
SN12C = system: SN12C

Measured: GI50

C=CCCCC1(C)CCCCNC1=O (stereo not given)
inactive: TK-10 > 10 µM | PC-3 > 10 µM | Hs-578T > 10 µM | Malme-3M > 10 µM | A498 > 10 µM | HL-60 > 10 µM | UO-31 > 10 µM | SK-OV-3 > 10 µM | HCC 2998 > 10 µM | DU-145 > 10 µM | IGROV-1 > 10 µM | SNB-19 > 10 µM | MDA-MB-231 > 10 µM | T47D > 10 µM | EKVX > 10 µM | U-251 > 10 µM | NCI-H226 > 10 µM | 786-0 > 10 µM | SN12C > 10 µM
> 10 µM: HCT-15

CC(C)C1OC(N)=C(C#N)C1(C#N)C#N (stereo not given)
inactive: TK-10 83.4 µM | PC-3 > 100 µM | Hs-578T 53.7 µM | Malme-3M > 100 µM | A498 > 100 µM | HL-60 5.58 µM | UO-31 33.1 µM | SK-OV-3 > 100 µM | HCC 2998 24.5 µM | DU-145 51.3 µM | IGROV-1 51.4 µM | SNB-19 46.8 µM | MDA-MB-231 > 100 µM | T47D 67.3 µM | EKVX 62.2 µM | U-251 54.1 µM | NCI-H226 > 100 µM | 786-0 29.4 µM | SN12C 69.7 µM
> 10 µM: HCT-15

NC(=S)NN=C1Cc2ccccc2C1
inactive: TK-10 > 100 µM | PC-3 > 100 µM | Hs-578T > 100 µM | Malme-3M > 100 µM | A498 > 100 µM | HL-60 > 100 µM | UO-31 > 100 µM | SK-OV-3 > 100 µM | HCC 2998 > 100 µM | DU-145 > 100 µM | IGROV-1 > 100 µM | SNB-19 > 100 µM | MDA-MB-231 > 100 µM | T47D > 100 µM | EKVX 42.3 µM | U-251 > 100 µM | NCI-H226 > 100 µM | 786-0 > 100 µM | SN12C > 100 µM
> 100 µM: HCT-15

COc1cc(/C=C2/C(=O)N(C(=O)c3ccccc3O)N=C2C)cc(OC)c1OC
active: Hs-578T 0.822 µM | A498 0.473 µM | UO-31 0.558 µM | IGROV-1 0.69 µM | T47D 1.12 µM
3.17 µM: HCT-15
inactive: TK-10 9.79 µM | PC-3 6.93 µM | Malme-3M 8.17 µM | HL-60 2.9 µM | SK-OV-3 2.47 µM | HCC 2998 11.6 µM | DU-145 2.44 µM | SNB-19 1.44 µM | MDA-MB-231 23.5 µM | EKVX 5.5 µM | U-251 1.2 µM | NCI-H226 6.21 µM | 786-0 2.25 µM | SN12C 3.1 µM

Cc1oc2c(c1C(=O)c1ccccc1)C(=O)c1ccccc1C2=O
inactive: TK-10 19.1 µM | PC-3 6.79 µM | Hs-578T 4.57 µM | Malme-3M 1.81 µM | A498 19.7 µM | HL-60 2.28 µM | UO-31 9.75 µM | SK-OV-3 12.5 µM | HCC 2998 15.5 µM | DU-145 11.8 µM | IGROV-1 4.99 µM | SNB-19 9.91 µM | MDA-MB-231 2.24 µM | T47D 3.83 µM | EKVX 12.6 µM | U-251 7.24 µM | NCI-H226 13.9 µM | 786-0 4.38 µM | SN12C 11.7 µM
4.51 µM: HCT-15

CC1=C(C)SC(=C2Sc3c(n(C)c(=O)n(C)c3=O)S2)S1
> 100 µM: HCT-15
inactive: TK-10 27.9 µM | PC-3 > 100 µM | Hs-578T 61.4 µM | Malme-3M > 100 µM | A498 27.4 µM | HL-60 > 100 µM | UO-31 59 µM | SK-OV-3 15.5 µM | HCC 2998 > 100 µM | DU-145 > 100 µM | IGROV-1 59.2 µM | SNB-19 32.3 µM | MDA-MB-231 22.7 µM | T47D > 100 µM | EKVX > 100 µM | U-251 4.14 µM | NCI-H226 20 µM | 786-0 17.4 µM | SN12C 35 µM
